# From patent US4118506A, “Pharmaceutical compositions containing 1,3-dithiol-2-ylidene malonate derivatives” (Nihon Nohyaku Co., Ltd., priority 1976, dated 1978)
# Legend:
# [1] = system: acute liver damage induced by D-galactosamine; test: protective effect on acute hepatitis with mesenchymal reaction and discrete lobular necrosis, D-galactosamine model; type: in vivo, rat (SD strain); conditions: 250 mg/kg oral 6 h before D-galactosamine i.p.
# Description: D-Galactosamine is a compound which induces a discrete lobular necrosis associated with mesenchymal reaction similar to the change observed in human viral hepatitis, so that it is frequently used in producing a model for viral hepatitis.
# The compound of this invention or anethol trithion was administered orally to the male rat (SD strain) at the dose of 250 mg/kg. Six hours after it, D-galactosamine was intraperitoneally administered at the dose of 600 mg/kg. Four hours after it, an additional 300 mg/kg was administered intraperitoneally. Eight hours after it, the animals were sacrificed to collect the blood samples. P-GPT activity and triglyceride in the liver were measured to evaluate the effect of the compound of this invention.
# [2] = system: acute liver damage induced by chloroform; test: protective effect on acute liver damage associated with centrilobular necrosis, chloroform model; type: in vivo, mouse (dd); conditions: chloroform 0.2 ml/kg oral; 100 mg/kg oral 6 h before; 24 h after
# Description: (§1) Bromobenzene (hereinafter abbreviated as BB), Dimethylnitrosamine (hereinafter abbreviated as DMN) and chloroform (hereinafter abbreviated as CF) resemble carbon tetrachloride in inducing liver damage associated with centrilobular necrosis.
# (§2) Test compound or anethol trithion was orally administered to animal at the dose of 100 mg/kg. Twenty four hours after it (in the case of dimethylnitrosamine, exceptionally fifteen hours after it) the animals were sacrificed and blood samples were collected. Indices of hepatotoxicity adoptable in each chemical were measured, from which the efficacy of the compound was evaluated.
# CF male mouse 0.2 oral p-GPT activity
# [3] = system: bile flow and excretion of biliary salt; test: cholagogic action: bile flow and biliary salt excretion; type: in vivo, rat (SD-JCL strain); parameters: key to excretion of biliary salt: relative to 1 h pre-drug amount taken as 100
# Description: The male rat (4 week-old, SD-JCL strain) was anesthetized with sodium pentobarbital (37.5 mg/kg, intraperitoneal injection). The abdominal cavity was opened through a midline incision. The common bile duct was catheterized with polyethylene tube o.d. 0.8 mm. The catheter was brought to the outside through the abdominal incision wound prior to closing. Bile was collected from the catheter continuously with time intervals of one hour. The quantity of bile produced in one hour was determined by weighing and that of biliary salt was determined by enzymatic method (Ikagaku Jikkenho Koza 1B, Biological Constituents II, edited by Tamino […]). The amount of biliary salts was represented as chloic acid equivalent. In the representation of the results, the quantities of bile and biliary salts produced in one hour prior to the administration of drug were taken as 100. […] As reference, anethol trithion was used.
# [4] = system: alcohol metabolic function of liver; test: effect on concentration of ethyl alcohol in the blood; type: in vivo, mouse; conditions: 250 mg/kg oral 6 h before ethanol 1,000 mg/kg
# Description: The test compounds are dissolved or suspended in olive oil and administered orally at the dose of 250 mg/kg to the mice. After 6 hours, 1,000 mg/kg of ethyl alcohol was given orally. Blood was taken in a capillary from caudal vein at the time indicated in the results. The plasma was obtained by centrifugation. The concentration of ethyl alcohol in the plasma was measured by FID type gas liquid chromatography. Five mice were used for each group.
# [5] = system: acute liver damage induced by carbon tetrachloride; test: protective effect on acute liver damage associated with centrilobular necrosis, carbon tetrachloride model; type: in vivo, mouse (dd strain); conditions: 250 mg/kg oral 6 h before CCl4, 24 h after CCl4
# From the text: Carbon tetrachloride (CCl4) administration induces centrilobular necrosis of the liver associated with loss of diphosphopyridine nucleotide, hepatic glycogen, coenzyme A and increase in neutral fat. Release of several enzymes from the hepatocytes, and increase of enzyme activities in the plasma are recognized as the result of the damage of the liver. A suitable means for evaluating the degree of damage induced by CCl4 or the degree of protection afforded by drugs is to study the plasma glutamic-pyruvic transaminase (p-GPT) activity.
# Methods: The test compounds were dissolved or suspended in olive oil and administered orally at the dose of 250 mg/kg to the mice (Four-week-old male mice-dd strain). After 6 hours, CCl4 was administered orally (0.05 ml/kg as olive oil solution). Animals were killed 24 hours after CCl4 administration, and the liver was grossly observed. The plasma was obtained by centrifugation. Activities of p-GPT were determined by the method of Reitman and Frankel and expressed in Karmen units.
# Score for liver damage index was as follows:
# Each figure indicates average of 5 to 6 mice. Values of p-GPT over 1,000 Karmen unit regarded as 1,000 for calculation of average for convenience.
# [6] = system: cirrhosis induced by carbon tetrachloride; test: therapeutic effect on cirrhosis, carbon tetrachloride; type: in vivo, rat (SD-strain); conditions: therapeutic group, diet 2000 ppm
# From the text: Almost all the liver diseases induced by various causes are considered to advance, finally, to cirrhosis. Cirrhosis is a final stage of liver damage, which is difficult to classify from the causal viewpoint. Usually, experimental cirrhosis is induced by long-term repeated administration of carbon tetrachloride. The therapeutic effect of the compounds of this invention on cirrhosis, which had been caused by carbon tetrachloride administration, was examined.
# A 10% solution of carbon tetrachloride in olive oil was administered to the male rat (4 week-old SD-strain) intraperitoneally at the dose of 0.5 ml carbon tetrachloride/kg twice a week over a period of 10 weeks, to induce cirrhosis. Four days after the final administration of carbon tetrachloride, the formation of pseudo-lobulus was confirmed. Then the diseased animals were divided into two groups. Therapeutic group was submitted a diet containing 2000 ppm of Compound 4, while the positive control group was submitted a normal diet. Control group, to which olive oil alone had been administered, was submitted a normal diet.
# At 1, 2, 4 and 8 weeks after beginning of Compound 4 feeding, 5 animals from each group were sacrificed, and the therapeutic effect on cirrhosis was evaluated by examining plasma transaminase activity (p-GPT and p-GOT, Reitman-Frankel method) and observing histopathological changes.
# Degree of cirrhosis in the histopathological examination was graded as follows: […]
# [7] = system: acute liver damage induced by dimethylnitrosamine; test: protective effect on acute liver damage associated with centrilobular necrosis, dimethylnitrosamine model; type: in vivo, mouse (dd); conditions: dimethylnitrosamine 0.05 ml/kg i.p.; 100 mg/kg oral 6 h before; 15 h after
# Description: as §1, §2
# DMN male mouse 0.05 intraper-
# [8] = 5 hours after administration, 200 mg/kg oral
structure (smiles),measurement,setting,value
"CC(C)OC(=O)C(C(=O)OC(C)C)=C1SC=CS1 [Compound 4, diisopropyl 1,3-dithiol-2-ylidene malonate]",Triglyceride in the liver,[1],4.4 ± 0.68 mg/g
same,p-GPT,[1],51 ± 15 Karmen unit
same,p-GPT,[2],58 ± 15 Karmen unit
same,excretion of biliary salt,"[3]; 200 mg/kg oral, 1 hour after treatment, before treatment = 100",108 ± 15
same,excretion of biliary salt,"[3]; 200 mg/kg oral, 2 hours after treatment, before treatment = 100",132 ± 25
same,excretion of biliary salt,"[3]; 200 mg/kg oral, 3 hours after treatment, before treatment = 100",138 ± 27
same,excretion of biliary salt,"[3]; 200 mg/kg oral, 4 hours after treatment, before treatment = 100",117 ± 27
same,excretion of biliary salt,"[3]; 200 mg/kg oral, 5 hours after treatment, before treatment = 100",90 ± 21
same,amount of total biliary salts excreted relative to control,[3]; [8],1.7 times
same,quantity of total excreted bile relative to control,[3]; [8],1.2 times
same,excretion of biliary salt,"[3]; before treatment, 1 hour, taken as 100 (normalisation)",100
same,Concentration of Ethyl alcohol in Plasma,[4]; 0 min,25 ± 12 ppm
same,Concentration of Ethyl alcohol in Plasma,[4]; 5 min,582 ± 143 ppm
same,Concentration of Ethyl alcohol in Plasma,[4]; 15 min,468 ± 30 ppm
same,Concentration of Ethyl alcohol in Plasma,[4]; 30 min,220 ± 87 ppm
same,Concentration of Ethyl alcohol in Plasma,[4]; 60 min,29 ± 17 ppm
same,Concentration of Ethyl alcohol in Plasma,[4]; 120 min,not detected
same,Liver Damage Index,"[5]; 0 normal, 2 slightly recognized, 4 clearly observable, 6 heavy damage, average of 5 to 6 mice",0.0
same,p-GPT,"[5]; values over 1,000 taken as 1,000",36 Karmen units
same,p-GOT activity,[6]; 1 week,562 ± 119 Karmen unit
same,p-GPT activity,[6]; 1 week,169 ± 30 Karmen unit
same,p-GOT activity,[6]; 2 weeks,182 ± 43 Karmen unit
same,p-GPT activity,[6]; 2 weeks,43 ± 11 Karmen unit
same,p-GOT activity,[6]; 4 weeks,142 ± 48 Karmen unit
same,p-GPT activity,[6]; 4 weeks,45 ± 23 Karmen unit
same,p-GOT activity,[6]; 8 weeks,120 ± 32 Karmen unit
same,p-GPT activity,[6]; 8 weeks,33 ± 20 Karmen unit
same,BSP,[7],10 ± 2.0 mg/dL
same,p-GPT,[7],204 ± 44 Karmen unit
